The test system of assay [1] is 9L gliosarcoma cells genetically engineered to stably express firefly luciferase (9LLuc). As to the kind of experiment: BCNU chemotherapy of orthotopic 9L-Luc rat brain tumors, log cell kill from serial MRI and BLI. It is filed as in vivo. The settings on record: intracerebral 9LLuc tumor, treated 16 days after implantation, mean ±SEM, n=5. From the text:
Current assessment of orthotopic tumor models in animals utilizes survival as the primary therapeutic endpoint. In vivo bioluminescence imaging ([…]) is a sensitive imaging modality that is rapid and accessible, and comprises an ideal tool for evaluating antineoplastic therapies. Using human tumor cell lines constitutively expressing luciferase, the kinetics of tumor growth and response to therapy have been assessed in intraperitoneal, subcutaneous and intravascular cancer models. […] Therefore, the ability of BLI to noninvasively quantitate the growth and therapeutic-induced cell kill of orthotopic rat brain tumors derived from 9L gliosarcoma cells genetically engineered to stably express firefly luciferase (9L^Luc) was investigated.
Intracerebral tumor burden was monitored over time by quantifying photon emission and tumor volume using a cryogenically-cooled CCD camera and magnetic resonance imaging (MRI), respectively. Excellent correlation (r=0.91) between detected photons and tumor volume was found.
FIGS. 5A-5O show a temporal analysis of the response of a 9L^Luc tumor to BCNU chemotherapy. […] Tumor volume was monitored with T2-weighted MRI (FIGS. 5A-5F) and infra-tumoral luciferase activity was monitored with BLI (FIGS. 5G-5L). […] Quantitative analysis of tumor progression and response to BCNU chemotherapy is shown by the graph FIG. 50. […]

The test system of assay [2] is D-54 derived stable cell line expressing a caspase-3 reporter molecule. As to the kind of experiment: Non-invasive bioluminescence imaging of apoptosis in D-54 caspase-3 reporter tumors in nude mice. It is filed as in vivo. The settings on record: 50 ug intratumorally, s.q. D-54 reporter tumors in nude mice, IVIS imaging after luciferin. An excerpt:
FIG. 6 depicts one strategy for imaging apoptosis. In this example, an estrogen regulatory domain results in silencing of luciferase due to sequestration. Activation of caspase-3 during apoptosis results in cleavage at the DEVD site, thus, releasing luciferase from the silencing effects of the estrogen regulatory domain. The free luciferase can, in the presence of luciferin, generate bioluminescense which can be imaged in vitro or in vivo using a Xenogen camera system.
FIGS. 8A and 8B depict non-invasive imaging of apoptosis. D-54 derived stable cell line expressing a caspase-3 reporter molecule similar to that described in FIG. 6 was implanted s.q. into nude mice. When the tumors reached a palpatable size they were treated with vector only (PBS, Panel A) or with 50 ug of TRAIL intratumoraly (panel B). Bioluminescent activity within the tumor was then measured after injection of luciferin using a IVIS imaging system.

The test system of assay [3] is D-54 cells expressing ER-Luc-ER caspase-3 reporter. Description: Western blot of caspase-3 reporter (ER-Luc-ER) cleavage in D-54 cells. It is filed as cell-based. Conditions: various concentrations for 3 hrs. The protocol:
FIG. 7 depicts a western blot showing induction of apoptosis. In D-54 cells, a caspase-3 reporter construct analogous to the one described in FIG. 6 except with ER domains as well as the caspase-3 cleavage sequence (DEVD) were present on the amino and carboxy termini (ER-Luc-ER) was used in the above studies. […] D-54 cells expressing this molecule were treated with TRAIL (TNF-related apoptosis inducing ligand) at various concentrations for 3 hrs.
In general terms: In western blotting, separated proteins are transferred to a membrane and probed.

For `O=NN(CCCl)C(=O)NCCCl` [BCNU, 1,3-bis(2-chloroethyl)-1 nitrosourea], the “Log cell kill calculated using BLI” value in assay [1] (BLI photon emission) is recorded as 1.84±0.73. Besides, in assay [1] (T2-weighted MRI tumor volume), the “Log cell kill calculated using MRI” value is 1.78±0.36.

B1: TRAIL: TNF-related apoptosis inducing ligand (protein, UniProt P50591 1-281, looked up)
Tumor necrosis factor ligand …: MAMMEVQGGPSLGQTCVLIVIFTVLLQSLCVAVTYVYFTNELKQMQDKYSKSGIACFLKEDDSYWDPNDEESMNSPCWQVKWQLRQLVRKMILRTSEETISTVQEKQQNISPLVRERGPQRVAAHITGTRGRSNTLSSPNSKNEKALGRKINSWESSRSGHSFLSNLHLRNGELVIHEKGFYYIYSQTYFRFQEEIKENTKNDKQMVQYIYKYTSYPDPILLMKSARNSCWSKDAEYGLYSIYQGGIFELKENDRIFVSVTNEHLIDMDHEASFFGAFLVG
On to B1, for which, in assay [2], the “increase in bioluminescence compared to the vector control” value was 2-3 ×. Besides, the “cleavage of ER-Luc-ER reporter (luciferase specific antibody western blot)” value in assay [3] was “cleaved to a 90 kD molecule (ER-Luc) and subsequently to Luc (60 kD)”.

The record behind these values is US20040115126A1, “Compositions and methods for the non-invasive detection of polypeptides in vivo” (The Regents of the University of Michigan, priority 2002, published 2004).
